# Columns and labels:
# Assay type in all cases: in vivo
# [1] = test system: cocklebur (Xanthium strumarium); assay: Test B pre-/postemergence plant response
# In short: (§1)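 Visual ratings on a 0–100 scale (100 = complete control) were made versus untreated controls 13–15 days after treatment in a greenhouse. Compounds in surfactant-containing non-phytotoxic solvent were applied preemergence to seeds in loam–sand blend or postemergence to 1- to 4-leaf plants (2–18 cm).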
# [2] = test system: goosegrass (Eleusine indica); assay: Test B pre-/postemergence plant response
# In short: as §1
# [3] = test system: johnsongrass (Sorghum halepense); assay: Test B pre-/postemergence plant response
# In short: as §1
# kochia (Kochia scoparia) = assay: Test B pre-/postemergence plant response; conditions: Postemergence; for Plant response rating, Kochia: scale 0 (no effect) to 100 (complete control)
# In short: as §1
# [4] = test system: pigweed (Amaranthus retroflexus); assay: Test B pre-/postemergence plant response
# In short: as §1
# [5] = test system: ragweed (common ragweed, Ambrosia elatior); assay: Test B pre-/postemergence plant response
# In short: as §1
# soybean (Glycine max) = assay: Test B pre-/postemergence plant response
# In short: as §1
# [6] = test system: velvetleaf (Abutilon theophrasti); assay: Test B pre-/postemergence plant response
# In short: as §1
# [7] = test system: wheat (Triticum aestivum); assay: Test B pre-/postemergence plant response
# In short: as §1
# wild oat (Avena fatua) = assay: Test B pre-/postemergence plant response
# In short: as §1
# [8] = test system: canarygrass (Phalaris minor); assay: Test B postemergence plant response; conditions: Postemergence
# In short: (§2)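 Plants grown in peat/vermiculite medium were sprayed postemergence at 2–18 cm height (1- to 4-leaf stage). After 13–15 days in the greenhouse, response was rated visually against untreated controls on a 0–100 scale (0 no effect, 100 complete control).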
# [9] = test system: chickweed (Stellaria media); assay: Test B postemergence plant response; conditions: Postemergence
# In short: as §2
# [10] = test system: windgrass (Apera spica-venti); assay: Test B postemergence plant response; conditions: Postemergence, scale 0 (no effect) to 100 (complete control)
# In short: as §2
# [11] = 250 g ai/ha, Preemergence, 0 to 100 scale
# [12] = Postemergence, 62 g ai/ha, scale 0 (no effect) to 100 (complete control), 13 to 15 days
# [13] = Postemergence, 125 g ai/ha, visual rating after 13 to 15 days, scale 0 (no effect) to 100 (complete control)
# [14] = Postemergence, 250 g ai/ha, scale 0 to 100
# [15] = Preemergence, 31 g ai/ha, scale 0 to 100 (0 no effect, 100 complete control)
# [16] = Preemergence, 62 g ai/ha, scale 0 to 100 (0 no effect, 100 complete control)
# [17] = Preemergence, 125 g ai/ha, 0 to 100 scale
# [18] = 125 g ai/ha, visual rating after 13 to 15 days
# [19] = 31 g ai/ha, scale 0 to 100 (0 no effect, 100 complete control)
# [20] = 62 g ai/ha, scale 0 (no effect) to 100 (complete control), 13 to 15 days
# [21] = 125 g ai/ha, visual rating after 13 to 15 days, scale 0 (no effect) to 100 (complete control)
compound,measurement,setting,value
Cc1cccc(Cl)c1-n1c(-c2ccccc2)ncc(C(=O)C2=C(O)CCCC2=O)c1=O [Compound 46],"Plant response rating, Cocklebur",[1]; [11],15
same,"Plant response rating, Cocklebur","[1]; Postemergence, 31 g ai/ha, scale 0 to 100 (0 no effect, 100 complete control)",75
same,"Plant response rating, Cocklebur",[1]; [12],80
same,"Plant response rating, Cocklebur",[1]; [13],80
same,Cocklebur plant response rating,[1]; [14],90
same,"Plant response rating, Cocklebur",[1]; [15],0
same,"Plant response rating, Cocklebur",[1]; [16],0
same,Cocklebur plant response rating,[1]; [17],0
same,"Plant response rating, Goosegrass",[2]; [11],98
same,"Plant response rating, Goosegrass",[2]; [12],75
same,"Plant response rating, Goosegrass",[2]; [13],80
same,Goosegrass plant response rating,[2]; [14],80
same,"Plant response rating, Goosegrass",[2]; [15],85
same,Goosegrass plant response rating,[2]; [17],98
same,"Plant response rating, Johnsongrass",[3]; [11],70
same,"Plant response rating, Johnsongrass",[3]; [12],50
same,"Plant response rating, Johnsongrass",[3]; [13],70
same,Johnsongrass plant response rating,[3]; [14],75
same,"Plant response rating, Johnsongrass",[3]; [15],0
same,"Plant response rating, Johnsongrass",[3]; [16],10
same,Johnsongrass plant response rating,[3]; [17],45
same,"Plant response rating, Kochia","kochia (Kochia scoparia); 62 g ai/ha, 13 to 15 days",0
same,"Plant response rating, Kochia",kochia (Kochia scoparia); [18],20
same,Kochia plant response rating,"kochia (Kochia scoparia); 250 g ai/ha, scale 0 to 100",30
same,"Plant response rating, Pigweed",[4]; [11],100
same,"Plant response rating, Pigweed",[4]; [12],75
same,"Plant response rating, Pigweed",[4]; [13],80
same,"Plant response rating, Pigweed",[4]; [15],85
same,Pigweed plant response rating,[4]; [17],95
same,"Plant response rating, Ragweed",[5]; [11],100
same,"Plant response rating, Ragweed",[5]; [12],75
same,"Plant response rating, Ragweed",[5]; [13],80
same,"Plant response rating, Ragweed",[5]; [15],100
same,Ragweed plant response rating,[5]; [17],100
same,"Plant response rating, Soybean",soybean (Glycine max); [11],25
same,"Plant response rating, Soybean",soybean (Glycine max); [12],80
same,"Plant response rating, Soybean",soybean (Glycine max); [13],90
same,"Plant response rating, Soybean",soybean (Glycine max); [15],0
same,Soybean plant response rating,soybean (Glycine max); [17],15
same,"Plant response rating, Velvetleaf",[6]; [11],65
same,"Plant response rating, Velvetleaf",[6]; [12],80
same,"Plant response rating, Velvetleaf",[6]; [13],85
same,"Plant response rating, Velvetleaf",[6]; [15],0
same,Velvetleaf plant response rating,[6]; [17],55
same,"Plant response rating, Wheat",[7]; [11],0
same,"Plant response rating, Wheat",[7]; [12],0
same,"Plant response rating, Wheat",[7]; [13],0
same,"Plant response rating, Wheat",[7]; [15],0
same,Wheat plant response rating,[7]; [17],0
same,"Plant response rating, Oat, Wild",wild oat (Avena fatua); [11],0
same,"Plant response rating, Oat, Wild",wild oat (Avena fatua); [12],5
same,"Plant response rating, Oat, Wild",wild oat (Avena fatua); [13],20
same,"Plant response rating, Oat, Wild",wild oat (Avena fatua); [15],0
same,"Oat, Wild plant response rating",wild oat (Avena fatua); [17],0
same,"Plant response rating, Canarygrass",[8]; [19],0
same,"Plant response rating, Canarygrass",[8]; [20],0
same,"Plant response rating, Canarygrass",[8]; [21],0
same,Canarygrass plant response rating,"[8]; 250 g ai/ha, scale 0 to 100",0
same,"Plant response rating, Chickweed",[9]; [19],80
same,"Plant response rating, Chickweed",[9]; [20],95
same,"Plant response rating, Chickweed",[9]; [21],95
same,Chickweed plant response rating,"[9]; 250 g ai/ha, scale 0 to 100",98
same,"Plant response rating, Windgrass","[10]; 62 g ai/ha, 13 to 15 days",10
same,"Plant response rating, Windgrass",[10]; [18],15
